Measured values published in patent publication US7338778B2, “Luminescent method for determining cell oxygen consumption” (Becton, Dickinson and Company, priority 1991, dated 2008).
Values after ≈ are worked out from the molar mass of the structure shown.

Legend:
[1] = tested on: HL60 cells; assay: Cytotoxicity assay in oxygen sensor plates; type: cell-based; conditions: Homo sapiens, read-out: IC50 O2 Sensor
Procedure: Oxygen sensor plates were prepared by the general methods described herein. Falcon 1177 polystyrene 96 well U-bottom plates (BD Labware) were used for all experiments. The fluorescent dye Ru(DPP)3Cl2 was adsorbed to silica gel by rotary evaporation of ethanolic solutions of the dye with the silica gel. The adsorbed dye-silica and a moisture-cure clear silicone were mixed manually and immediately applied to plate wells with approximately 17 uL silicone per well. These were cured for 2-3 days in a controlled humidity incubator.
All data was obtained with a BMG Polarstar fluorimeter at 37° C. using the bottom plate reading configuration. The bandpass filters were 465 nm for excitation and 590 nm for emission. For the experiments with […]®, a Cytofluor 4000 fluorometer was used with a 485 nm excitation filter and a 580 nm emission filter. Data was read at selected time intervals. Normalized fluorescence data was generally obtained by dividing well values at selected time points by the same well's initial reading with only media or buffer present prior to adding cells.
Cells used for cytotoxicity and quantitation experiments (HL60, U937; ATCC) were grown in tissue culture media recommended by the supplier (RPMI; Gibco and ATCC, respectively). The media was supplemented with either 20% fetal bovine serum (Hyclone) for the HL60 cells or 10% FBS for the U937 cells, with the addition of penicillin, streptomycin and fungizone (Gibco) to prevent microbial contamination. Cells were maintained in a tissue culture incubator (37° C., 5% CO2, 95% humidity) during all experiments between readings.
HL60 cells (human promyelocytic leukemia cell line, ATCC #45500) were grown in tissue culture media recommended by the supplier (RPMI; Gibco), supplemented with 20% fetal bovine serum, heat inactivated at 50° C. for thirty minutes with the addition of penicillin, streptomycin and fungizone (Gibco) to prevent microbial contamination. Cells were maintained in tissue culture incubator (37° C., 5% CO2, 95% humidity) during all experiments. Fluorescence of the oxygen sensor was read on a Polarstar™ fluorometer (BMG), using 465 nm excitation and 590 nm emission filters.
100 uL of tissue culture media was aliquoted into the wells of the Oxygen sensor plate and plate was allowed to equilibrate in the tissue culture incubator for 1 hour prior to taking the initial reading. This reading was used to normalize all subsequent readings to account for well to well variability. Cells were resuspended in fresh media at 960,000 cells/mi. Serial 1:2 dilution of this stock was performed and 100 uL of each dilution was alliquoted across the length of the plate in replicates of 12 (rows B-H), with final cell/well number from 1,500 to 96,000. In row A, 100 uL of tissue culture media was alliquoted into the wells in lieu of cells (no-cells control). Fluorescence measurements were taken every 24 hours over 5 days. The actual number of cells present was counted with a hemocytometer by sampling the parallel well (same seeding cell number). Mean fluorescence from 5 wells per data point (n=5) was plotted against the counted cell number (FIG. 10). Error bars are standard deviation of the mean.
The experiment was performed as described in Example 18, with the following exceptions. Serial dilutions of vinblastine were prepared at twice the final concentration (100 nM to 0.1 nM) in tissue culture media.100 uL of the drug dilution in tissue culture media was aliquoted across the width of the plate in replicates of five, reserving one column for no-drug (media only) control. After an initial reading, a constant number of cells (200,000/well) in 100 uL media were added to each well of rows A-E of the oxygen sensor plate, reserving rows F-H for no-cells control. Fluorescence was read at the indicated times. Mean fluorescence from 5 wells per data point (n=5) was plotted against vinblastine concentration (FIG. 12).

[2] = tested on: HL60 cells; assay: Cytotoxicity assay by MTT; type: cell-based; conditions: Homo sapiens, read-out: IC50 MTT
Procedure: In parallel with the oxygen sensor assays, MTT assays were performed using a Cell Titer Kit™ (Promega), as in Example 20, with the following exceptions. For each time point (corresponding to oxygen sensor assay time point), one flat-bottom 96 well microtiter plate (Falcon) was used. 50 uL of drug dilution in tissue culture media was used for initial reading and cells were suspended in 50 uL media, to the final volume of 100 uL. At indicated time points, 10 uL of MTT reagent was added per well for 1 hour, after which 100 uL of the stop/lysis buffer was added. Plates were sealed with Parafilm™ and cell lysis occurred overnight. Absorbance (570 nm corrected by absorbance at 750 nm) was read using a Thermomax Microplate Reader (Molecular Devices). Mean absorbance from 5 wells per data point, with standard deviation as error bars, was plotted against vinblastine concentration (FIG. 13).
These experiments was performed as described in Example 20, with the exception that appropriate dilutions of the above reagents were substituted for vinblastine: 0.01 nM to 10000 nM methotrexate, 0.00001 to 10 mM sodium azide, and 2 to 2000 uM SDS respectively.

[3] = tested on: Pseudomonas aeruginosa (ATCC #10145); conditions: 1.5×10^8 CFU/ml, 37° C., times less than two hours
Procedure: A suspension containing about 3×10^8 CFU/ml, of Pseudomonas aeruginosa (ATCC #10145) in Broth A was prepared using an A-Just nephelometer. A total of 150 ul of the suspension was placed in each well of the indicator trays prepared as in Example 1; these suspensions were then diluted with solutions of phenol or copper sulfate (which are deleterious to microbial growth) to a final concentration of 1.5×10^8 CFU/ml. The trays were incubated at 37° C. and their fluorescence measured in a Fluoroskan II at 10 minute intervals.

[4] = tested on: E. coli (ATCC #25922); assay: Effect of antibiotics on E. coli, Ru(DPP)3Cl2 indicator tray (Example 8); type: cell-based; conditions: for susceptibility of E. coli by fluorescence counts: 4 hours; for Relative Fluorescence at 4 hrs.: 1×10^7 CFU/ml, 37° C.
Procedure: (§1) A 0.5 McFarland suspension of E. coli (ATCC #25922) in Broth A (see Example 1) was prepared using an A-Just nephelometer. […] The trays were incubated at 37° C. for 4 hours and their fluorescence measured in a Fluoroskan II fluorometer.
The fluorescent compound tris 4,7-diphenyl-1,10-phenanthroline ruthenium (II) chloride (Ru(DPP)3Cl2) was synthesized using the procedure of Watts and Crosby (J. Am.Chem. Soc. 93, 3184(1971)). A total of 3.6 mg of the compound was dissolved in 2.0 ml dimethyl sulfoxide (D-5879, Sigma Chemical, St. Louis, Mo.) and the resultant solution was then added slowly, with stirring, to 1300 ml silicone rubber forming solution (Water Based Emulsion #3-5024, Dow Corning, Midland, Mich.). A 35 microliter aliquot of the mixture was subsequently dispensed into each well of a 96 well, flat bottom, white microtiter tray (#011-010-7901, Dynatech, Chantilly, Va.), and the system was subsequently cured overnight in a low humidity (less than 25% RH), 60° C. incubator. After curing, the trays were washed by either soaking or by filling and emptying each well several times with each of the following reagents; a) absolute ethanol, b) 0.1 M phosphate buffer pH 7.2, c) hot distilled water (about 45° C.) and d) ambient temperature distilled water.

[5] = tested on: E. coli (ATCC #25922); assay: Effect of antibiotics on oxygen consumption of E. coli, Ru(BiPy)3Cl2 indicator tray (Example 9); type: cell-based; conditions: for susceptibility of E. coli by fluorescence counts: 4 hours; for Relative Fluorescence at 4 hrs.: 1×10^7 CFU/ml, 37° C.
Procedure: A 96 well Microtiter tray was produced essentially as in Example 1, except that tris-(2,2′ bipyridyl)-ruthenium (II) chloride hexahydrate (Aldrich Chemical Company, Milwaukee, Wis.) [Ru(BiPy)3Cl2] was substituted for Ru(DPP)3Cl2 in the silicone mixture. A second tray containing 9,10-diphenyl anthracene (DPA) was also prepared. All wells were charged with 150 ul of 1×10^7 CFU/ml E. coli (ATCC #25922) in broth. Table 3 lists the results at 0, 1, 2, 3, and 4 hours after addition of organisms.
as §1

[6] = tested on: E. coli (ATCC #25922); assay: Visual reading of indicator tray fluorescence without a fluorometer (Example 13); type: cell-based; conditions: E. coli #25922, 1×10^7 CFU/ml, 4 hours at 37° C., UV transilluminator
Procedure: (§2) The trays were incubated for 4 hours at 37° C. and subsequently placed on the stage of an ultraviolet transilluminator (#TX-365A, Spectronics Corp., Westbury, N.Y.) which served as an excitation source.

[7] = tested on: Ps. aeruginosa (BDMS Culture collection #N111); assay: as above; type: cell-based; conditions: 1×10^7 CFU/ml, 4 hours at 37° C., UV transilluminator
Procedure: as §2

[8] = tested on: Ps. aeruginosa (BDMS Culture collection #N111); assay: Overnight microdilution antimicrobial susceptibility test (reference MIC); type: cell-based; conditions: Pseudomonas aeruginosa
[9] = tested on: E. coli (ATCC #25922); assay: as above; type: cell-based; conditions: Escherichia coli, ATCC25922; E. coli #25922, overnight microdilution
[10] = tested on: E. coli (ATCC #25922); assay: Effect of antibiotics on oxygen consumption of E. coli, DPA indicator tray (Example 10); type: cell-based; conditions: for susceptibility of E. coli by fluorescence counts: 4 hours; for Relative Fluorescence at 4 hrs.: 1×10^7 CFU/ml, 37° C.
[11] = all concentrations (0.5 to 8 ug/ml)

With `CC[C@]1(O)C[C@@H]2CN(CCc3c([nH]c4ccccc34)[C@@](C(=O)OC)(c3cc4c(cc3OC)N(C)[C@H]3[C@@](O)(C(=O)OC)[C@H](OC(C)=O)[C@]5(CC)C=CCN6CC[C@]43[C@@H]65)C2)C1` [Vinblastine, vinblastine] the IC50 ([1]; HL-60, HL60 cells, 48 hours) was 11 nM, the IC50 ([1]; HL-60, HL60 cells, 72 hours) was 11 nM and the IC50 ([1]; HL-60, HL60 cells, 96 hours) was 9 nM. It also gave an IC50 ([1]; HL-60, HL60 cells, 120 hours) of 9 nM, an IC50 ([2]; HL-60, HL60 cells, 48 hours) of 9 nM and an IC50 ([2]; HL-60, HL60 cells, 72 hours) of 8 nM. It also gave an IC50 ([2]; HL-60, HL60 cells, 96 hours) of 7 nM and an IC50 ([2]; HL-60, HL60 cells, 120 hours) of 6.4 nM.

For `O=S(=O)([O-])[O-].[Cu+2]` [copper sulfate], the “concentration at which wells had no increase in fluorescence signal (absence of actively metabolizing organisms)” value [3] was “greater than 500 mg/liter”.

`CO[C@@]1(NC(=O)Cc2cccs2)C(=O)N2C(C(=O)O)=C(COC(N)=O)CS[C@@H]21` [Cefoxitin, cefoxitin] was tested, and the “susceptibility of E. coli by fluorescence counts” value (“susceptibility of E. coli” below) ([4]; 0.5, 1, and 2 ug/ml) was “resistant”, the “susceptibility of E. coli” value ([4]; 4 and 8 ug/ml) was “sensitive” and the “Relative Fluorescence at 4 hrs.” value ([4]; antibiotic 0.5 ug/mL) was 8181. The “Relative Fluorescence at 4 hrs.” value ([4]; antibiotic 1 ug/mL) was 8270, the “Relative Fluorescence at 4 hrs.” value ([4]; antibiotic 2 ug/mL) was 7120 and the “Relative Fluorescence at 4 hrs.” value ([4]; antibiotic 4 ug/mL) was 3692. The “Relative Fluorescence at 4 hrs.” value ([4]; antibiotic 8 ug/mL) was 2974, the “susceptibility of E. coli” value ([5]; 0.5, 1, and 2 ug/ml) was “resistant” and the “susceptibility of E. coli” value ([5]; 4 and 8 ug/ml) was “sensitive”. For the same compound, the “Relative Fluorescence at 4 hrs.” value ([5]; antibiotic 0.5 ug/mL) was 1171, the “Relative Fluorescence at 4 hrs.” value ([5]; antibiotic 1 ug/mL) was 1491 and the “Relative Fluorescence at 4 hrs.” value ([5]; antibiotic 2 ug/mL) was 1338. The “Relative Fluorescence at 4 hrs.” value ([5]; antibiotic 4 ug/mL) was 832, the “Relative Fluorescence at 4 hrs.” value ([5]; antibiotic 8 ug/mL) was 559 and the “MIC Visual (lowest concentration of antibiotic to significantly lower the fluorescent emissions)” value [6] was 8 µg/mL. For the same compound, the “MIC Visual (lowest concentration of antibiotic to significantly lower the fluorescent emissions)” value [7] was over 64 µg/mL, the MIC [8] was over 64 µg/mL and the MIC [9] was 4 µg/mL (≈ 9.36 µM). The “susceptibility of E. coli” value ([10]; 0.5, 1, 2 ug/ml) was “resistant”, the “susceptibility of E. coli” value ([10]; 4 and 8 ug/ml) was “sensitive” and the “Relative Fluorescence at 4 hrs.” value ([10]; antibiotic 0.5 ug/mL) was 192. For the same compound, the “Relative Fluorescence at 4 hrs.” value ([10]; antibiotic 1 ug/mL) was 173, the “Relative Fluorescence at 4 hrs.” value ([10]; antibiotic 2 ug/mL) was 164 and the “Relative Fluorescence at 4 hrs.” value ([10]; antibiotic 4 ug/mL) was 101. For the same compound, the “Relative Fluorescence at 4 hrs.” value ([10]; antibiotic 8 ug/mL) was 95.

With `CN(Cc1cnc2nc(N)nc(N)c2n1)c1ccc(C(=O)N[C@@H](CCC(=O)O)C(=O)O)cc1` [Methotrexate, methotrexate] the IC50 ([1]; HL-60, HL60 cells, 96 hours) was 19 nM, the IC50 ([1]; HL-60, HL60 cells, 120 hours) was 12 nM and the IC50 ([2]; HL-60, HL60 cells, 120 hours) was 14 nM.

For `Oc1ccccc1` [phenol], the “concentration at which wells had no increase in fluorescence signal (absence of actively metabolizing organisms)” value [3] was at least 1 gram/liter.

Compound `[N-]=[N+]=[N-]` [Sodium Azide, sodium azide] has an IC50 ([1]; HL-60, 48 h) of 13000 nM, an IC50 ([1]; HL-60, 72 h) of 13000 nM and an IC50 ([1]; HL-60, 96 h) of 9000 nM. It also gave an IC50 ([1]; HL-60, 120 h) of 5800 nM, an IC50 ([2]; HL-60, 48 h) of 25000 nM and an IC50 ([2]; HL-60, 72 h) of 25000 nM. The IC50 ([2]; HL-60, 96 h) was 3000 nM and the IC50 ([2]; HL-60, 120 h) was 1600 nM.

With `CCCCCCCCCCCCOS(=O)(=O)[O-].[Na+]` [SDS, Sodium Dodecyl Sulfate] the IC50 ([1]; HL-60, HL60 cells, 24 hours) was 340000 nM, the IC50 ([1]; HL-60, HL60 cells, 48 hours) was 300000 nM and the IC50 ([1]; HL-60, HL60 cells, 72 hours) was 300000 nM. The IC50 ([2]; HL-60, HL60 cells, 24 hours) was 500000 nM, the IC50 ([2]; HL-60, HL60 cells, 48 hours) was 440000 nM and the IC50 ([2]; HL-60, HL60 cells, 72 hours) was 430000 nM.

In the case of `O=C(O)c1cn(C2CC2)c2cc(N3CCNCC3)c(F)cc2c1=O` [Ciprofloxacin, ciprofloxacin], the “susceptibility of E. coli” value [4, 11] is reported as “sensitive”, the “susceptibility of E. coli” value [5, 11] is reported as “sensitive” and the “susceptibility of E. coli” value [10, 11] is reported as “sensitive”.
